Our source for the pest or weed control, inhibition and mortality values is US4952580A, “Pesticidal polyhaloalkene derivatives” (priority 1988, dated 1990).

The subject of experiment [1] is root-knot nematode (Meloidogyne incognita). In words: Initial Root-Knot Nematicidal Activity. The experiment is classed as in vivo. Particulars: 336 h, read-out: Percent Control; for pest or weed control at 0.313 ppm: Table 2, Application Rate 0.313 ppm; for pest or weed control at 5 ppm: Table 2, Application Rate 5.0 ppm; for pest or weed control at 10 ppm: Table 2, Application Rate 10.0 ppm. Put shortly:
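Compound incorporated into Meloidogyne incognita-infested soil at 10 ppm to 0.078 ppm, then planted with tomato or cucumber seedlings. Root galling scored two weeks after planting as a knot index and converted to percent control, given as averages.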

In experiment [2] the test system is root-knot nematode. Put plainly: Residual Root-Knot Nematicidal Activity. The conditions noted are these: read-out: Percent Control. Type of experiment: in vivo, Meloidogyne incognita. Put shortly:
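Soil received 5% dust formulation at 5 and 10 ppm test compound and was held in a greenhouse, then infested with root-knot nematode eggs and larvae at 1, 2 and 4 weeks post-treatment. Cucumber or tomato seedlings were planted and scored about two weeks after infestation for Knot Index and Percent Control.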

The subject of the next experiment is stunt nematode. Put plainly: Stunt Nematode Test. The experiment is classed as in vivo. Particulars: 672 h, read-out: Percent Control; for pest or weed control at 5 ppm: rate 5 ppm.
The next experiment concerns lesion nematode. Put plainly: Lesion Nematode Test. Type of experiment: in vivo. Particulars: read-out: Percent Control. Put shortly: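 Run as the stunt nematode test but on pea seedlings; compounds applied as dust formulations (initial and residual activity) or acetone/water formulations (systemic activity), with untreated samples as reference. Percent control derived by formula.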

The next experiment deals with cyst nematode. Put plainly: Cyst Nematode Test. Particulars: read-out: Percent Control. The experiment is classed as in vivo. The method, then:
Compounds of this invention were tested as follows for nematicidal and anthelmintic activity as dust formulations (initial and residual activity) and as acetone/water formulations (systemic activity). The formulations are described above.
The procedures was substantially the same as described in the stunt nematode test except soybean seedlings were used. "Percent Control" (Table 6 appended) is as defined in the stunt nematode test results.

Experiment [3] has as its system root-knot nematode. Put plainly: Soil Mobility against root-knot nematode. Type of experiment: in vivo, Meloidogyne incognita. Particulars: 336 h; for pest or weed control at 0.313 ppm: Table 7, 0.313 ppm; for pest or weed control at 0.625 ppm: Table 7, 0.625 ppm; for pest or weed control at 1.25 ppm: Table 7, 1.25 ppm; for pest or weed control at 2.5 ppm: Table 7, 2.5 ppm; for pest or weed control at 10 ppm: Table 7, 10 ppm. Put shortly:
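Soil mobility of the nematicidal test material was evaluated by placing treated, nematode-infested soil in 8 cm plastic pots stacked above two or more pots of untreated infested soil, each containing a 10 cm^3 sand layer and filter paper discs. Fifteen cm of water was dripped through, pots drained 16-18 hours, then were planted with cucumber or tomato seedlings and scored for Percent Control.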

The subject of a further experiment is Caenorhabditis elegans. Put plainly: C. Elegans Nematode Screening Test and Evaluation (in-vitro). The conditions noted are these: Caenorhabditis elegans. The procedure, abridged:
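Worms (10-15 per well) in buffer with E. coli food, ampicillin and mycostatin; compound added in DMSO, 2-3 replicates per rate. Incubated 5-6 days at 20° C. Population development scored against untreated wells, noting effects such as reduced egg hatch or molting disruption.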

[4] abbreviates: Table 2, Application Rate 0.625 ppm.
The mark [5] stands for this setting: Table 2, Application Rate 1.25 ppm.
Setting [6] is: Table 2, Application Rate 2.5 ppm.
[7] abbreviates: 168 h, Table 3, 5 ppm, inoculation 1 week after treatment.
[8] abbreviates: 168 h, Table 3, inoculation 1 week after treatment.
The mark [9] stands for this setting: 336 h, Table 3, 5 ppm, inoculation 2 weeks after treatment.
The mark [10] stands for this setting: 672 h, Table 3, 5 ppm, inoculation 4 weeks after treatment.
Where [11] appears, read: Bottom container, read-out: Percent Control.
[12] abbreviates: Middle container, read-out: Percent Control.
[13] abbreviates: Top container, read-out: Percent Control.
Where [14] appears, read: Table 7, 30 ppm, Bottom container, read-out: Percent Control.
Where [15] appears, read: Table 7, 30 ppm, Top container, read-out: Percent Control.
[16] abbreviates: read-out: Percent Control, Table 7, 30 ppm, Middle container.
The mark [17] stands for this setting: Table 9 screen, 5 ppm, read-out: Percent Mortality.

Structures are written as SMILES. Where two headings read alike, the source gives them in different places.

`FC(F)=C(F)CCSC1=NCCS1` [Compound 1, 2-(3,4,4-trifluoro-3-butenylthio)-4,5-dihydrothiazole]: the pest or weed control at 0.078 ppm in experiment [1] (Table 2, Application Rate 0.078 ppm) was determined as 56%. Further, the pest or weed control at 0.313 ppm worked out at 99% in experiment [1], 25% in the experiment on root-knot nematode [3] (setting [11]), 75% with root-knot nematode [3] (setting [12]) and 77% in the experiment on root-knot nematode [3] (setting [13]). In addition, the pest or weed control at 0.625 ppm in experiment [1] (setting [4]) turned out to be 100%; with root-knot nematode [3] (setting [11]) it was 77%; in the experiment with root-knot nematode [3] (setting [12]), 98%; in the experiment with root-knot nematode [3] (setting [13]), 97%. Moreover, the pest or weed control at 1.25 ppm was 99% in experiment [1] (setting [5]), 96% with root-knot nematode [3] (setting [11]), 99% in the experiment with root-knot nematode [3] (setting [12]) and 100% with root-knot nematode [3] (setting [13]). For the same compound, the pest or weed control at 2.5 ppm in experiment [1] (setting [6]) came to 99%; with lesion nematode (Table 5, rate 2.5 ppm), 0%; in the experiment with root-knot nematode [3] (setting [11]), 100%; in the experiment on root-knot nematode [3] (setting [12]), 100%; in the experiment with root-knot nematode [3] (setting [13]), 100%. Besides, the pest or weed control at 5 ppm in experiment [1] was 99%; in the experiment on root-knot nematode [2] (setting [7]), 99%; in the experiment on root-knot nematode [2] (setting [9]) it was 63%; in the experiment on root-knot nematode [2] (setting [10]), 25%; with stunt nematode (Table 4) it was 30%; in the experiment with cyst nematode (Table 6, rate 5 ppm), 94%. In addition, the pest or weed control at 5 ppm worked out at 79% in the experiment with cyst nematode (Table 6, rate 5 ppm, whole cysts rather than homogenized cysts); 99% in the experiment on root-knot nematode [3] (Table 7, 5 ppm, Bottom container, read-out: Percent Control); 98% with root-knot nematode [3] (Table 7, 5 ppm, Middle container, read-out: Percent Control); 100% in the experiment on root-knot nematode [3] (Table 7, 5 ppm, Top container, read-out: Percent Control). Besides, the pest or weed control at 10 ppm in experiment [1] amounted to 100%; with root-knot nematode [2] (setting [8]) it was 98%; in the experiment with stunt nematode (Table 4, rate 10 ppm) it was 61%; in the experiment on root-knot nematode [3] (container 1 (Top), read-out: Percent Control) it was 100%; in the experiment on root-knot nematode [3] (container 2, read-out: Percent Control) it was 100%; with root-knot nematode [3] (container 3, read-out: Percent Control), 100%. The pest or weed control at 10 ppm worked out at 99% with root-knot nematode [3] (container 4, read-out: Percent Control); 97% with root-knot nematode [3] (container 5, read-out: Percent Control); 42% in the experiment with root-knot nematode [3] (container 6 (Bottom), read-out: Percent Control). In addition, in experiment [1], the pest or weed control at 0.156 ppm was determined as 95%. The pest or weed control at 30 ppm in the experiment on root-knot nematode [3] (setting [14]) is 85%; in the experiment with root-knot nematode [3] (setting [15]), 97%; in the experiment on root-knot nematode [3] (setting [16]) it was 95%.

Consider `CSc1nnc(SCCC(F)=C(F)F)s1` [Compound 2, 2-methylthio-5-(3,4,4-trifluoro-3-butenylthio)-1,3,4-thiadiazole], for which the pest or weed control at 0.313 ppm in experiment [1] is 38%. The pest or weed control at 0.625 ppm in experiment [1] (setting [4]) was found to be 84%. Besides, in experiment [1] (setting [5]), the pest or weed control at 1.25 ppm worked out at 86%. For the same compound, the pest or weed control at 2.5 ppm amounted to 96% in experiment [1] (setting [6]) and 95% in experiment [1]. The pest or weed control at 5 ppm in experiment [1] stood at 96%; with root-knot nematode [2] (setting [7]), 98%; in the experiment with root-knot nematode [2] (setting [9]), 38%; with root-knot nematode [2] (setting [10]), 42%; in the experiment on stunt nematode (Table 4) it was 72%; with lesion nematode (Table 5, rate 5 ppm), 0%. Moreover, the pest or weed control at 5 ppm with cyst nematode (Table 6, rate 5 ppm) stood at 70%. Moreover, the pest or weed control at 10 ppm in experiment [1] came to 100%; in the experiment with root-knot nematode [2] (setting [8]), 77%; with root-knot nematode [2] (336 h, Table 3, inoculation 2 weeks after treatment), 56%; with root-knot nematode [2] (672 h, Table 3, inoculation 4 weeks after treatment), 69%. Also, the pest or weed control at 30 ppm in the experiment on root-knot nematode [3] (setting [14]) stood at 25%; with root-knot nematode [3] (setting [15]), 42%; with root-knot nematode [3] (setting [16]), 33%.

For orientation: inhibition means the share of the control response that was lost under treatment. As a reminder, the mortality is the share of the test organisms that died. Take `FC(F)=C(F)CCSc1nsc(SCCC(F)=C(F)F)n1` [Compound 25, 3,5-di(3,4,4-trifluoro-3-butenylthio)-1,2,4-thiadiazole]: the pest or weed control at 0.312 ppm in experiment [1] (Table 2, Application Rate 0.312 ppm) came to 78%. Moreover, in experiment [1] (setting [4]), the pest or weed control at 0.625 ppm worked out at 97%. Moreover, the pest or weed control at 1.25 ppm in experiment [1] (setting [5]) amounted to 97%. The pest or weed control at 2.5 ppm in experiment [1] (setting [6]) amounted to 99%; in the experiment on lesion nematode (Table 5, rate 2.5 ppm) it was 77%. Also, the pest or weed control at 5 ppm in the experiment with root-knot nematode [2] (168 h, Table 3a, 5% dust, 5 ppm, inoculation 1 week post-treatment) is 100%; in the experiment with root-knot nematode [2] (336 h, Table 3a, 5% dust, 5 ppm, inoculation 2 weeks post-treatment) it was 97%; in the experiment with root-knot nematode [2] (672 h, Table 3a, 5% dust, 5 ppm, inoculation 4 weeks post-treatment), 98%; in the experiment with cyst nematode (Table 6, rate 5 ppm), 83%; in the experiment with root-knot nematode [3] (Table 7a, 5% dust, 5 ppm, BOTTOM container, read-out: Percent Control), 8%; in the experiment on root-knot nematode [3] (Table 7a, 5% dust, 5 ppm, MIDDLE container, read-out: Percent Control) it was 69%. In addition, in the experiment with root-knot nematode [3] (Table 7a, 5% dust, 5 ppm, TOP container, read-out: Percent Control), the pest or weed control at 5 ppm stood at 100%. Further, the inhibition at 5 ppm in the experiment on Caenorhabditis elegans (Table 9 screen, 5 ppm, read-out: Percent Inhibition of Reproduction) was determined as 100%. Moreover, the mortality at 5 ppm in the experiment on Caenorhabditis elegans (setting [17]) was found to be 75%; in the experiment with Caenorhabditis elegans (Table 10 evaluation, 5 ppm, read-out: Percent Mortality), 100%. Moreover, in the experiment on Caenorhabditis elegans (Table 10 evaluation, 1.25 ppm, read-out: Percent Inhibition of Reproduction), the inhibition at 1.25 ppm is 17%. The mortality at 1.25 ppm with Caenorhabditis elegans (Table 10 evaluation, 1.25 ppm, read-out: Percent Mortality) was 0%. Besides, in the experiment with Caenorhabditis elegans (Table 10 evaluation, 2.5 ppm, read-out: Percent Inhibition of Reproduction), the inhibition at 2.5 ppm stood at 58%. The mortality at 2.5 ppm with Caenorhabditis elegans (Table 10 evaluation, 2.5 ppm, read-out: Percent Mortality) came to 0%.

In the case of `FCCSc1nnc(SCCC(F)=C(F)F)s1` [Compound 27, 2-(2-fluoroethylthio)-5-(3,4,4-trifluoro-3-butenylthio)-1,3,4-thiadiazole], in experiment [1], the pest or weed control at 0.312 ppm was 31%. Also, in experiment [1], the pest or weed control at 0.625 ppm came out at 79%. The pest or weed control at 1.25 ppm in experiment [1] was found to be 99%. For the same compound, the pest or weed control at 2.5 ppm in experiment [1] is 100%; in the experiment on lesion nematode, 63%. In addition, the pest or weed control at 5 ppm with root-knot nematode [2] (168 h) was determined as 99%; with root-knot nematode [2] (336 h), 97%; in the experiment with root-knot nematode [2] (672 h), 99%; in the experiment on stunt nematode (Table 4a) it was 62%; in the experiment on cyst nematode, 57%; with root-knot nematode [3] (read-out: Percent Control, Table 7a, 5% dust, 5 ppm, BOTTOM container), 100%. Also, the pest or weed control at 5 ppm in the experiment on root-knot nematode [3] (read-out: Percent Control, Table 7a, 5% dust, 5 ppm, MIDDLE container) was 100%; with root-knot nematode [3] (read-out: Percent Control, Table 7a, 5% dust, 5 ppm, TOP container) it was 99%. Besides, in the experiment on Caenorhabditis elegans (setting [17]), the mortality at 5 ppm was determined as 0%. Moreover, the inhibition at 5 ppm in the experiment with Caenorhabditis elegans (read-out: Percent Inhibition of Reproduction) came to 38%.
